Test results as given in ChEMBL document CHEMBL1201862, “PubChem BioAssay data set” (2004).
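Grown in 96-well plates, cells were treated for 48 hours with each compound at five concentrations. Insufficient inhibition: endpoint recorded as highest concentration tested. GI50 is the concentration that inhibits growth by half.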 Active and inactive are the calls of the source. Rule as the data show it: active = GI50 up to about 1.1 µM and inactive = higher.

Assays:
Test in all cases: growth of human tumour cells (NCI), 48 h
786-0 = tested on: 786-0
A498 = tested on: A498
ACHN = tested on: ACHN
CAKI-1 = tested on: CAKI-1
EKVX = tested on: EKVX
HL-60 = tested on: HL-60
M19-MEL = tested on: M19-MEL
MDA-N = tested on: MDA-N
Malme-3M = tested on: Malme-3M
NCI-H226 = tested on: NCI-H226
OVCAR-8 = tested on: OVCAR-8
SF-268 = tested on: SF-268
SN12C = tested on: SN12C
SNB-75 = tested on: SNB-75
T47D = tested on: T47D
UACC-257 = tested on: UACC-257
UACC-62 = tested on: UACC-62
UO-31 = tested on: UO-31

Measured: GI50

CC(C)(C)OC(=O)N[C@H]1CC2(C=C(Cl)C(=O)C(Cl)=C2)OC1=O
inactive: 786-0 14.9 µM | A498 4.18 µM | ACHN 14.6 µM | CAKI-1 13.5 µM | EKVX 15.2 µM | HL-60 2.13 µM | M19-MEL 17.1 µM | MDA-N 17.1 µM | Malme-3M 11.5 µM | NCI-H226 > 59.7 µM | OVCAR-8 17.1 µM | SF-268 17.3 µM | SN12C 18.5 µM | SNB-75 20.5 µM | T47D 14.9 µM | UACC-257 13.8 µM | UACC-62 16.5 µM | UO-31 18.8 µM
